From paper PMC10272271, “MAM-2201 acute administration impairs motor, sensorimotor, prepulse inhibition, and memory functions in mice: a comparison with its analogue AM-2201” (Psychopharmacology, 2023)

Columns and labels:
Type in all cases: in vivo, mouse
CD-1 male mice [1] = experiment: Visual object response test; conditions: AM 251 6 mg/kg i.p. 20 min before MAM-2201 6 mg/kg
Protocol: For the overall study 234 mice were used. In sensorimotor (visual object, visual placing, acoustic, and overall tactile responses) tests for MAM-2201, experiments for each treatment dose (vehicle or 5 different MAM-2201 doses, 0.01, 0.1, 1, 3, and 6 mg/kg) used 8 mice (total mice used: 48) and for MAM-2201 with AM-251 pretreatment, experiments for each dose regimen (vehicle + AM-251 or MAM-2201 + AM-251, 6 mg/kg) used 16 mice. In the analysis of spontaneous locomotion (open field test) for MAM-2201, experiments for each treatment regimen (vehicle or 4 different MAM-2201 doses, 0.01, 0.1, 1, and 6 mg/kg) used 10 mice (total mice used: 50). In the PPI test for MAM-2201, experiments for each treatment (vehicle or 3 different MAM-2201 doses, 0.01, 0.1, and 1 mg/kg) used 10 mice (total mice used: 40), while for MAM-2201 experiments in the Novel Object Recognition (NOR) test for each treatment regimen (vehicle or 3 different MAM-2201 and vehicle or 3 different AM-2201 doses, 0.01, 0.1, and 1 mg/kg) used 10 mice (total mice used: 80). In the present study the effect of MAM-2201 on sensorimotor responses was investigated using a battery of behavioral tests widely used in studies of “safety-pharmacology,” that we routinely adopted in our laboratory, for the preclinical characterization of new molecules in rodents (Ossato et al. [2015]; Vigolo et al. [2015]; Bilel et al. [2020]). The voluntary and involuntary motor responses of the animal to different visual, acoustic, and tactile stimuli were evaluated according to the procedure described in our previous studies (Ossato et al. [2015]; Bilel et al. [2020]). To reduce the number of animals used, mice were evaluated in functional observational tests carried out in a consecutive manner according to the following time scheme: observation of visual object responses (frontal and lateral view), acoustic response, tactile response (vibrissae, corneal and pinnae reflexes), and visual placing response. Sensorimotor tests were measured at 10, 30, 60, 120, 180, 240, and 300 min after injections for the evaluation of the visual object, acoustic and the tactile response, and at 15, 45, 75, 135, 195, 255, and 315 min after injections for the evaluation of visual placing response. Behavioral tests were conducted in a thermostated (temperature: 20–22 °C, humidity: 45–55%) and light (150 lx) controlled room with a background noise of 40 ± 4 dB. The apparatus for the visual object, acoustic and tactile sensorimotor tests consisted of an experimental chamber (350 × 350 × 350 mm) with black methacrylate walls and a transparent front door. During the week before the experiment, each mouse was placed in the box and handled (once a day) on every other day, i.e., 3 times, to get used to both the environment and the experimenter. To avoid olfactory cues, cages were carefully cleaned with a dilute (5%) ethanol solution and rinsed with water. All experiments were performed between 8:30 AM and 2:00 PM and conducted by trained observers working in pairs who were blinded to the treatment being tested (Ossato et al. [2015]). The behavior of mice was videotaped by a camera (B/W USB Camera day & night with varifocal lens; Ugo Basile, Italy) placed at the top or on one side of the box and analyzed off-line by a different trained operator. Spontaneous locomotion studies were conducted in a separate set of animals through ANYMAZE test. Sensory gating was evaluated by analysis of the pre-pulse inhibition (PPI) of the acoustic startle reflex as previously described (Bilel et al. [2020]).
Visual object response test was used to evaluate the ability of the mouse to see an object approaching from the front (frontal view) or the side (lateral view) that typically induces the animal to shift or turn the head, bring the forelimbs in the position of “defense” or retreat from it. For the frontal visual response, a white horizontal bar was moved frontally to the mouse head and the maneuver was repeated 3 times. […]

CD-1 male mice [2] = experiment: Visual placing response test; conditions: AM 251 6 mg/kg i.p. before MAM-2201 6 mg/kg
Protocol: For the overall study 234 mice were used. In sensorimotor (visual object, visual placing, acoustic, and overall tactile responses) tests for MAM-2201, experiments for each treatment dose (vehicle or 5 different MAM-2201 doses, 0.01, 0.1, 1, 3, and 6 mg/kg) used 8 mice (total mice used: 48) and for MAM-2201 with AM-251 pretreatment, experiments for each dose regimen (vehicle + AM-251 or MAM-2201 + AM-251, 6 mg/kg) used 16 mice. In the analysis of spontaneous locomotion (open field test) for MAM-2201, experiments for each treatment regimen (vehicle or 4 different MAM-2201 doses, 0.01, 0.1, 1, and 6 mg/kg) used 10 mice (total mice used: 50). In the PPI test for MAM-2201, experiments for each treatment (vehicle or 3 different MAM-2201 doses, 0.01, 0.1, and 1 mg/kg) used 10 mice (total mice used: 40), while for MAM-2201 experiments in the Novel Object Recognition (NOR) test for each treatment regimen (vehicle or 3 different MAM-2201 and vehicle or 3 different AM-2201 doses, 0.01, 0.1, and 1 mg/kg) used 10 mice (total mice used: 80). […] The voluntary and involuntary motor responses of the animal to different visual, acoustic, and tactile stimuli were evaluated according to the procedure described in our previous studies (Ossato et al. [2015]; Bilel et al. [2020]). To reduce the number of animals used, mice were evaluated in functional observational tests carried out in a consecutive manner according to the following time scheme: observation of visual object responses (frontal and lateral view), acoustic response, tactile response (vibrissae, corneal and pinnae reflexes), and visual placing response. Sensorimotor tests were measured at 10, 30, 60, 120, 180, 240, and 300 min after injections for the evaluation of the visual object, acoustic and the tactile response, and at 15, 45, 75, 135, 195, 255, and 315 min after injections for the evaluation of visual placing response. […] Sensory gating was evaluated by analysis of the pre-pulse inhibition (PPI) of the acoustic startle reflex as previously described (Bilel et al. [2020]). […]

CD-1 male mice [3] = experiment: Acoustic response test; conditions: AM 251 6 mg/kg i.p. before MAM-2201 6 mg/kg
Protocol: For the overall study 234 mice were used. In sensorimotor (visual object, visual placing, acoustic, and overall tactile responses) tests for MAM-2201, experiments for each treatment dose (vehicle or 5 different MAM-2201 doses, 0.01, 0.1, 1, 3, and 6 mg/kg) used 8 mice (total mice used: 48) and for MAM-2201 with AM-251 pretreatment, experiments for each dose regimen (vehicle + AM-251 or MAM-2201 + AM-251, 6 mg/kg) used 16 mice. In the analysis of spontaneous locomotion (open field test) for MAM-2201, experiments for each treatment regimen (vehicle or 4 different MAM-2201 doses, 0.01, 0.1, 1, and 6 mg/kg) used 10 mice (total mice used: 50). In the PPI test for MAM-2201, experiments for each treatment (vehicle or 3 different MAM-2201 doses, 0.01, 0.1, and 1 mg/kg) used 10 mice (total mice used: 40), while for MAM-2201 experiments in the Novel Object Recognition (NOR) test for each treatment regimen (vehicle or 3 different MAM-2201 and vehicle or 3 different AM-2201 doses, 0.01, 0.1, and 1 mg/kg) used 10 mice (total mice used: 80). In the present study the effect of MAM-2201 on sensorimotor responses was investigated using a battery of behavioral tests widely used in studies of “safety-pharmacology,” that we routinely adopted in our laboratory, for the preclinical characterization of new molecules in rodents (Ossato et al. [2015]; Vigolo et al. [2015]; Bilel et al. [2020]). The voluntary and involuntary motor responses of the animal to different visual, acoustic, and tactile stimuli were evaluated according to the procedure described in our previous studies (Ossato et al. [2015]; Bilel et al. [2020]). To reduce the number of animals used, mice were evaluated in functional observational tests carried out in a consecutive manner according to the following time scheme: observation of visual object responses (frontal and lateral view), acoustic response, tactile response (vibrissae, corneal and pinnae reflexes), and visual placing response. Sensorimotor tests were measured at 10, 30, 60, 120, 180, 240, and 300 min after injections for the evaluation of the visual object, acoustic and the tactile response, and at 15, 45, 75, 135, 195, 255, and 315 min after injections for the evaluation of visual placing response. Behavioral tests were conducted in a thermostated (temperature: 20–22 °C, humidity: 45–55%) and light (150 lx) controlled room with a background noise of 40 ± 4 dB. The apparatus for the visual object, acoustic and tactile sensorimotor tests consisted of an experimental chamber (350 × 350 × 350 mm) with black methacrylate walls and a transparent front door. During the week before the experiment, each mouse was placed in the box and handled (once a day) on every other day, i.e., 3 times, to get used to both the environment and the experimenter. To avoid olfactory cues, cages were carefully cleaned with a dilute (5%) ethanol solution and rinsed with water. All experiments were performed between 8:30 AM and 2:00 PM and conducted by trained observers working in pairs who were blinded to the treatment being tested (Ossato et al. [2015]). The behavior of mice was videotaped by a camera (B/W USB Camera day & night with varifocal lens; Ugo Basile, Italy) placed at the top or on one side of the box and analyzed off-line by a different trained operator. […] Sensory gating was evaluated by analysis of the pre-pulse inhibition (PPI) of the acoustic startle reflex as previously described (Bilel et al. [2020]). […]

CD-1 male mice [4] = experiment: Overall tactile response (vibrissae, corneal, pinnae reflexes); conditions: AM 251 6 mg/kg i.p. before MAM-2201 6 mg/kg
Protocol: For the overall study 234 mice were used. In sensorimotor (visual object, visual placing, acoustic, and overall tactile responses) tests for MAM-2201, experiments for each treatment dose (vehicle or 5 different MAM-2201 doses, 0.01, 0.1, 1, 3, and 6 mg/kg) used 8 mice (total mice used: 48) and for MAM-2201 with AM-251 pretreatment, experiments for each dose regimen (vehicle + AM-251 or MAM-2201 + AM-251, 6 mg/kg) used 16 mice. In the analysis of spontaneous locomotion (open field test) for MAM-2201, experiments for each treatment regimen (vehicle or 4 different MAM-2201 doses, 0.01, 0.1, 1, and 6 mg/kg) used 10 mice (total mice used: 50). In the PPI test for MAM-2201, experiments for each treatment (vehicle or 3 different MAM-2201 doses, 0.01, 0.1, and 1 mg/kg) used 10 mice (total mice used: 40), while for MAM-2201 experiments in the Novel Object Recognition (NOR) test for each treatment regimen (vehicle or 3 different MAM-2201 and vehicle or 3 different AM-2201 doses, 0.01, 0.1, and 1 mg/kg) used 10 mice (total mice used: 80). In the present study the effect of MAM-2201 on sensorimotor responses was investigated using a battery of behavioral tests widely used in studies of “safety-pharmacology,” that we routinely adopted in our laboratory, for the preclinical characterization of new molecules in rodents (Ossato et al. [2015]; Vigolo et al. [2015]; Bilel et al. [2020]). The voluntary and involuntary motor responses of the animal to different visual, acoustic, and tactile stimuli were evaluated according to the procedure described in our previous studies (Ossato et al. [2015]; Bilel et al. [2020]). To reduce the number of animals used, mice were evaluated in functional observational tests carried out in a consecutive manner according to the following time scheme: observation of visual object responses (frontal and lateral view), acoustic response, tactile response (vibrissae, corneal and pinnae reflexes), and visual placing response. Sensorimotor tests were measured at 10, 30, 60, 120, 180, 240, and 300 min after injections for the evaluation of the visual object, acoustic and the tactile response, and at 15, 45, 75, 135, 195, 255, and 315 min after injections for the evaluation of visual placing response. Behavioral tests were conducted in a thermostated (temperature: 20–22 °C, humidity: 45–55%) and light (150 lx) controlled room with a background noise of 40 ± 4 dB. […] The behavior of mice was videotaped by a camera (B/W USB Camera day & night with varifocal lens; Ugo Basile, Italy) placed at the top or on one side of the box and analyzed off-line by a different trained operator. […] Sensory gating was evaluated by analysis of the pre-pulse inhibition (PPI) of the acoustic startle reflex as previously described (Bilel et al. [2020]). […]

In the case of `Cc1c(C(=O)NN2CCCCC2)nn(-c2ccc(Cl)cc2Cl)c1-c1ccc(I)cc1` [AM 251, 1-(2,4-Dichlorophenyl)-5-(4-iodophenyl)-4-methyl-N-(piperidin-1-yl)-1H-pyrazole-3-carboxamide, reference compound], the “effect of pre-treatment on MAM-2201-induced inhibition of visual object response” value (CD-1 male mice [1]) is reported as “significantly prevented”, the “effect of pre-treatment on MAM-2201-induced inhibition of visual placing response” value (CD-1 male mice [2]) is reported as “prevented” and the “effect of pre-treatment on MAM-2201-induced inhibition of acoustic response” value (CD-1 male mice [3]) is reported as “prevented”. For the same compound, the “effect of pre-treatment on MAM-2201-induced inhibition of overall tactile response” value (CD-1 male mice [4]) was “prevented”.
